This assay deals with AcrB (Escherichia coli, UniProt P31224). Description: isothermal titration calorimetry (ITC). The class given is binding. (In general: Isothermal titration calorimetry measures the heat released or taken up as one component is titrated into another.)

Where two headings read alike, the source gives them in different places.

Sequence of AcrB (P31224 whole entry): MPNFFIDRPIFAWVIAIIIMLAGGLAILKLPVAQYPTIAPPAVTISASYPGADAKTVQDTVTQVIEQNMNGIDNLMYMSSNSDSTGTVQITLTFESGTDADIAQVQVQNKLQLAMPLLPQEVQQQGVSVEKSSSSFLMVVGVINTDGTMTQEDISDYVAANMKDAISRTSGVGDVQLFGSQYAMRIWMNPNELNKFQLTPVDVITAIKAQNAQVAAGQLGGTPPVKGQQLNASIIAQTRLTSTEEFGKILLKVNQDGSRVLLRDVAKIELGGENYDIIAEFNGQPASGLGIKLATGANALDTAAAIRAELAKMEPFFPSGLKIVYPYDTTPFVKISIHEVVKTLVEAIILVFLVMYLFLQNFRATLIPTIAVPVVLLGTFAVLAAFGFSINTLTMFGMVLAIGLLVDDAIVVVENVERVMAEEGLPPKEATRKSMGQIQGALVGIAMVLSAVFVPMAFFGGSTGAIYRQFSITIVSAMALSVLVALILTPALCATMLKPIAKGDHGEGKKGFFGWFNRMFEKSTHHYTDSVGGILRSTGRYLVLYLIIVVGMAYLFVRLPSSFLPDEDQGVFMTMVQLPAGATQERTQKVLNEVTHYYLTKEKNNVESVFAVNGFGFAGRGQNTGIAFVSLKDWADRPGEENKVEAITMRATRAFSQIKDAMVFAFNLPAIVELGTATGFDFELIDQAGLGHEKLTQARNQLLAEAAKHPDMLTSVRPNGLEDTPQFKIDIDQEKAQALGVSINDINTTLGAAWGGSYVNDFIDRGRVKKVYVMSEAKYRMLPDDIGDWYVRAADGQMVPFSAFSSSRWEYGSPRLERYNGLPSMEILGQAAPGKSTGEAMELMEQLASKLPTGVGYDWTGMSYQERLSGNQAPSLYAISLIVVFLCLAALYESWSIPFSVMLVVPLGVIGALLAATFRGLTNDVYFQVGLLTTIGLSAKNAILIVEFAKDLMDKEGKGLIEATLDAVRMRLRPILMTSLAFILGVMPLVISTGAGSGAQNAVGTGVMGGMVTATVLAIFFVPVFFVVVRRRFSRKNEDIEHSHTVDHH

Take `CC(C)(C)c1nc(NC(=N)N)sc1Br` [EPM30]: the equilibrium dissociation constant (Kd) (in general, the equilibrium constant for the complex coming apart) (read-out: KD) was 1790 ± 370 nM. Turning to `OC(COc1ccc(Cl)c(Cl)c1)CN1CCC(Nc2nccc(C(F)(F)F)n2)CC1` (stereo not drawn) [EPM35], the affinity, expressed as Kd, was 290 ± 30 nM. With `Cc1ccc(Sc2cccc3nc(N)nc(N)c23)cc1` [EPM43], the Kd (read-out: KD) worked out at 560 ± 60 nM.

For the origin of these results see PMC6007937, “A cell-based infection assay identifies efflux pump modulators that reduce bacterial intracellular load” (PLoS Pathogens, 2018).
